The source of these data is patent US9573978B2, “Cyclosporin derivatives for the treatment and prevention of a viral infection” (priority 2010, dated 2017).

Read-outs that look alike come from different tables or passages of the source. Starred links: 1 amine or outer side, 2 acyl side, 3 side chain; linkers in the order of their positions; H or OH if unused. Non-standard residues stand in square brackets, D forms with d. Residues, ends and D or L forms follow the SMILES beside them. ξ: configuration not given here. NMe(dihydroBmt) = CCCC[C@@H](C)[C@@H](O)[C@H](NC)C(=O)O; MeBmt = C/C=C/C[C@@H](C)[C@@H](O)[C@H](NC)C(=O)O; X2 = CN([C@H](SCCCN1CCOCC1)C(=O)[*:2])[*:1]; NMeLeu(4-OMe) = CN[C@@H](CC(C)(C)OC)C(=O)O; X4 = CCN(CC)CCS[C@@H](C(=O)[*:2])N(C)[*:1]; X1 = CCN(CC)CCS[C@H](C(=O)[*:2])N(C)[*:1]; X5 = CC=CCC(C)C(O)C(C(=O)[*:2])N(C)[*:1]; X7 = C=CCOC(C)(C)CC(C(=O)[*:2])N(C)[*:1]; X6 = CN(C(SCCCN1CCOCC1)C(=O)[*:2])[*:1]; NMeIle(3ξ) = CCC(C)[C@H](NC)C(=O)O; NMeL = CN[CH](CC(C)C)C(=O)O; NMeV = CN[CH](C(=O)O)C(C)C; Abu = CC[CH](N)C(=O)O

The assay relates to HCV replicon in Huh7 human hepatoma cell line ET (luc-ubi-neo/ET). In words: HCV subgenomic replicon assay, luciferase end point, cell line ET (luc-ubi-neo/ET). Format: cell-based, Hepatitis C virus. On the procedure: The anti-HCV activity of cyclosporine derivatives were evaluated in the HCV subgenomic replicon assay. The assay use the cell line ET (luc-ubi-neo/ET), which is a Huh7 human hepatoma cell line harboring an HCV replicon with a stable luciferase (Luc) reporter. HCV RNA replication was assessed by quantifying HCV replicon-derived luciferase activity. The antiviral activity of cyclosporine analogs were evaluated after drug treatment, the EC 50 and EC 90 were determined in subsequent assessments by using the luciferase end point (Krieger, N., et al., 2001, J. Virol. 75, 4614-4624; Pietschmann, T., et al., 2002, J. Virol. 76, 4008-4021; each of which is incorporated herein by reference).

Where [1] appears, read: Hepatitis C virus, Huh-7, read-out: Antiviral activity IC50.
The mark [2] stands for this setting: HCV replicon-derived luciferase activity, read-out: Antiviral activity IC50.

For the compound `C/C=C/C[C@@H](C)[C@@H](O)[C@H]1C(=O)N[C@@H](CC)C(=O)N(C)[C@H](SCCCN2CCOCC2)C(=O)N(C)[C@@H](CC(C)(C)O)C(=O)N[C@@H](C(C)C)C(=O)N(C)[C@@H](CC(C)C)C(=O)N[C@@H](C)C(=O)N[C@H](C)C(=O)N(C)[C@@H](CC(C)C)C(=O)N(C)[C@@H](CC(C)C)C(=O)N(C)[C@@H](C(C)C)C(=O)N1C` [Example 1, [(R)-3-(N-Morphlino)propylthio-Sar]-3-[(γ-Hydroxy)-NMeLeu]-4-cyclosporin], under setting [1], the IC50 was found to be 40 nM. The same measure, in the same setting: to `C/C=C/C[C@@H](C)[C@@H](O)[C@H]1C(=O)N[C@@H](CC)C(=O)N(C)[C@H](SCCCN(CC)CC)C(=O)N(C)[C@@H](CC(C)(C)O)C(=O)N[C@@H](C(C)C)C(=O)N(C)[C@@H](CC(C)C)C(=O)N[C@@H](C)C(=O)N[C@H](C)C(=O)N(C)[C@@H](CC(C)C)C(=O)N(C)[C@@H](CC(C)C)C(=O)N(C)[C@@H](C(C)C)C(=O)N1C` [Example 2, [(R)-3-(N,N-Diethylamino)propylthio-Sar]-3-[(γ-Hydroxy)-NMeLeu]-4-cyclosporin] belongs 70 nM; to `CCCC[C@@H](C)[C@@H](O)[C@H]1C(=O)N[C@@H](CC)C(=O)N(C)[C@H](SCCCN2CCOCC2)C(=O)N(C)[C@@H](CC(C)(C)OC)C(=O)N[C@@H](C(C)C)C(=O)N(C)[C@@H](CC(C)C)C(=O)N[C@@H](C)C(=O)N[C@H](C)C(=O)N(C)[C@@H](CC(C)C)C(=O)N(C)[C@@H](CC(C)C)C(=O)N(C)[C@@H](C(C)C)C(=O)N1C` [Example 10, [(R)-3-(N-Morphlino)propylthio-Sar]-3-[(γ-Methoxy)-NMeLeu]-4-Dihydrocyclosporin] (cyclo(A[dA][NMeL][NMeL][NMeV][NMe(dihydroBmt)][Abu][X2][NMeLeu(4-OMe)]V[NMeL])), 90 nM. Regarding `C/C=C/C[C@@H](C)[C@@H](O)[C@H]1C(=O)N[C@@H](CC)C(=O)N(C)[C@H](SCCCN2CCOCC2)C(=O)N(C)[C@@H](CC(C)(C)OC)C(=O)N[C@@H](C(C)C)C(=O)N(C)[C@@H](CC(C)C)C(=O)N[C@@H](C)C(=O)N[C@H](C)C(=O)N(C)[C@@H](CC(C)C)C(=O)N(C)[C@@H](CC(C)C)C(=O)N(C)[C@@H](C(C)C)C(=O)N1C` [Example 12, [(R)-3-(N-Morphlino)propylthio-Sar]-3-[(γ-Methoxy)-NMeLeu]-4-cyclosporin], the IC50 under setting [1] amounted to 60 nM. For `C=CCOC(C)(C)CC1C(=O)NC(C(C)C)C(=O)N(C)C(CC(C)C)C(=O)NC(C)C(=O)NC(C)C(=O)N(C)C(CC(C)C)C(=O)N(C)C(CC(C)C)C(=O)N(C)C(C(C)C)C(=O)N(C)C(C(O)C(C)CC=CC)C(=O)NC(CC)C(=O)N(C)C(SCCCN2CCOCC2)C(=O)N1C` [Example 26, [(R)-3-(N-Morphlino)propylthio-Sar]-3-[(γ-Allyloxy)-NMeLeu]-4-cyclosporin] (cyclo([X5][Abu][X6][X7]V[NMeL]AA[NMeL][NMeL][NMeV]); configuration not given here), the IC50 under setting [2] came out at 80 nM. The same measure, in the same setting: to `C/C=C/C[C@@H](C)[C@@H](O)[C@H]1C(=O)N[C@@H](CC)C(=O)N(C)CC(=O)N(C)[C@@H](C(C)C)C(=O)N[C@@H](C(C)C)C(=O)N(C)[C@@H](CC(C)C)C(=O)N[C@@H](C)C(=O)N[C@H](C)C(=O)N(C)[C@@H](CC(C)C)C(=O)N(C)[C@@H](CC(C)C)C(=O)N(C)[C@@H](C(C)C)C(=O)N1C` [SDZ-220-384, N-MeVal-4-Cyclosporin] belongs 170 nM.

`C/C=C/C[C@@H](C)[C@@H](O)[C@H]1C(=O)N[C@@H](CC)C(=O)N(C)CC(=O)N(C)[C@@H]([C@@H](C)CC)C(=O)N[C@@H](C(C)C)C(=O)N(C)[C@@H](CC(C)C)C(=O)N[C@@H](C)C(=O)N[C@H](C)C(=O)N(C)[C@@H](CC(C)C)C(=O)N(C)[C@@H](CC(C)C)C(=O)N(C)[C@@H](C(C)C)C(=O)N1C` [SDZ-NIM-811, N-MeIle-4-Cyclosporin]: the IC50 under setting [1] was 150 nM. Turning to `C/C=C/C[C@@H](C)[C@@H](O)[C@H]1C(=O)N[C@@H](CC)C(=O)N(C)[C@H](SCCN(CC)CC)C(=O)N(C)[C@@H](C(C)CC)C(=O)N[C@@H](C(C)C)C(=O)N(C)[C@@H](CC(C)C)C(=O)N[C@@H](C)C(=O)N[C@H](C)C(=O)N(C)[C@@H](CC(C)C)C(=O)N(C)[C@@H](CC(C)C)C(=O)N(C)[C@@H](C(C)C)C(=O)N1C` (stereo partly drawn) [[(R)-2-(N,N-Diethylamino)ethylthio-Sar]-3-[NMeIle]-4-cyclosporin] (cyclo(A[dA][NMeL][NMeL][NMeV][MeBmt][Abu][X1][NMeIle(3ξ)]V[NMeL])), the IC50 under setting [1] worked out at 40 nM. Take `C/C=C/C[C@@H](C)[C@@H](O)[C@H]1C(=O)N[C@@H](CC)C(=O)N(C)[C@H](SCCN(CC)CC)C(=O)N(C)[C@@H](C(C)C)C(=O)N[C@@H](C(C)C)C(=O)N(C)[C@@H](CC(C)C)C(=O)N[C@@H](C)C(=O)N[C@H](C)C(=O)N(C)[C@@H](CC(C)C)C(=O)N(C)[C@@H](CC(C)C)C(=O)N(C)[C@@H](C(C)C)C(=O)N1C` [[(R)-2-(N,N-Diethylamino)ethylthio-Sar]-3-[NMeVal]-4-cyclosporin] (cyclo(A[dA][NMeL][NMeL][NMeV][MeBmt][Abu][X1][NMeV]V[NMeL])): the IC50 under setting [2] worked out at 40 nM. Still for that read-out and setting: to `C/C=C/C[C@@H](C)[C@@H](O)[C@H]1C(=O)N[C@@H](CC)C(=O)N(C)[C@@H](SCCN(CC)CC)C(=O)N(C)[C@@H](C(C)C)C(=O)N[C@@H](C(C)C)C(=O)N(C)[C@@H](CC(C)C)C(=O)N[C@@H](C)C(=O)N[C@H](C)C(=O)N(C)[C@@H](CC(C)C)C(=O)N(C)[C@@H](CC(C)C)C(=O)N(C)[C@@H](C(C)C)C(=O)N1C` [[(S)-2-(N,N-Diethylamino)ethylthio-Sar]-3-[NMeVal]-4-cyclosporin] (cyclo(A[dA][NMeL][NMeL][NMeV][MeBmt][Abu][X4][NMeV]V[NMeL])) belongs 3660 nM; to “[(S)-2-(N,N-Diethylamino)ethylthio-Sar]-3-[NMeIle]-4-cyclosporin”, 1870 nM.
